Test results: patent US20110184018A1, “METHOD FOR TREATING PERIPHERAL NEUROPATHIC PAIN” (LOHOCLA RESEARCH CORPORATION, priority 2005, published 2011)

Test: Solubility limit in aqueous assay buffers
Type: physicochemical
Settings: aqueous assay buffers (incubation or bath solutions), aqueous buffer, kinetic from dmso stock, DMSO 0.2 to 1%, read-out: concentrations that could not be tested due to limited solubility in aqueous buffers
Experimental: Drugs. For all in vitro assays, stock solutions of DCUKA or DCUK-OMe were prepared fresh daily in dimethylsulfoxide (DMSO) then diluted into the incubation or bath solutions with sonication to the desired concentrations for experiments. Due to their limited solubility in aqueous buffers, DCUKA concentrations >300 μM and DCUK-OMe concentrations >100 μM could not be tested. In those assays where high ionic strength buffers were used, i.e., [^3H]batrachiotoxin (BTX) binding in depolarized synaptosomes, concentrations >50 μM could not be tested. The final concentration of DMSO in the assays ranged from 0.2 to 1%. In all assays, drug effects were compared with effects measured in the presence of the identical concentration of DMSO without drug.

With O=C(O)c1cc(NC(=O)N(c2ccccc2)c2ccccc2)c2c(Cl)cc(Cl)cc2n1 [DCUKA, N,N-diphenyl-4-ureido-5,7-dichloro-2-carboxyquinoline] the solubility was greater than 300 µM.
